The target of one data set is T1, human GnRH receptors (Homo sapiens, UniProt P30968).
T1 construct: expressed in transfected cells; host or cells: CHO-K1
T1 sequence (P30968 1-328): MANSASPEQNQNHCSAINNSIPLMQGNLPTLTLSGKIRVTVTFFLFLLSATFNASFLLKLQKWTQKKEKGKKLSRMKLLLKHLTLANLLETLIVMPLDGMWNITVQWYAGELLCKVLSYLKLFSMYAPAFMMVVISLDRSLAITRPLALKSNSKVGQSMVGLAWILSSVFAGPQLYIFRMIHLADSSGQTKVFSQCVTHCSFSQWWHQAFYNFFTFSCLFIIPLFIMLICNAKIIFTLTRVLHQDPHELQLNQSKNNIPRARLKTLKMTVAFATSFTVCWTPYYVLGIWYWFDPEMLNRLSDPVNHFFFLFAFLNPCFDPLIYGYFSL
The data set can be described thus: Human GnRH receptor functional assay (intracellular calcium release). The format is cell-based. The note with it: CHO-K1 cells expressing human GnRH receptors; block of GnRH (EC80)-induced intracellular calcium release; 20 minutes pre-incubation. On the procedure:
Human GnRH Receptor Functional Assay
GnRH-receptor antagonists may be functionally assessed by measurement of change in intracellular calcium levels induced by Gαq mediated increase in IP3 levels. The ability of compounds to block the intracellular release of calcium by GnRH in CHO-K1 cells expressing human GnRH receptors is determined as a measure of the compound's antagonist activity in vitro. Approximately 30,000 cells per assay well (half well 96 well assay plate—Corning) are seeded in normal culture medium. Twenty four hours after seeding the cells are loaded with a calcium sensitive fluorescent dye by replacing the culture medium with assay buffer (1× Hanks buffered saline, 25 mM HEPES, 0.1% w/v fatty acid free BSA, pH7.4) containing 2.5 mM probenecid and 1× Calcium Plus reagent (Molecular) Devices. Cells are incubated at 37° C. for 1 hour to allow for dye uptake. To test for antagonist activity, compounds at a concentration range between 0.1 nM-3.2 μM are added to the assay wells and allowed to incubate 20 minutes prior to stimulation with GnRH. After incubation with test compounds the assay plate is placed in a Flexstation II (Molecular Devices) and GnRH is added at the determined EC80 concentration (final). Ligand-dependent changes in intracellular calcium levels are determined by measuring changes in fluorescence of the dye at […] following excitation at 485 nm. Percentage inhibition curves are plotted using 4-parameter fit algorithm and IC50 values calculated for each compound.
For orientation: A change in cytosolic calcium serves as a functional read-out for many receptors and channels.

Results on four compounds are retold here after patent US20090209522A1, “Heterocyclic Non-Peptide GNRH Antagonists” (priority 2005, published 2009).

For the compound `COc1nc(NCCCN2CCOCC2)nc(OC)c1NC(=O)c1coc(Oc2cccc(C(C)(C)C)c2)n1` [Example 1, 2-(3-tert-butylphenoxy)-N-(4,6-dimethoxy-2-(3-morpholinopropylamino)pyrimidin-5-yl)oxazole-4-carboxamide], the melting point – broadly, the temperature, or range, at which the solid turns liquid – stood at 85 °C.
In the case of `COc1nc(NCCCN2CCOCC2)nc(OC)c1NC(=O)c1csc(Oc2cccc(C(C)(C)C)c2)n1` [Example 2, 2-(3-tert-butylphenoxy)-N-(4,6-dimethoxy-2-(3-morpholinopropylamino)pyrimidin-5-yl)thiazole-4-carboxamide], the melting point was found to be 68 °C. Further, at human GnRH receptors, the half-inhibitory concentration (IC50) (in general, the concentration that gives 50% inhibition) was found to be 485 nM.
Consider `COc1nc(NCCN(C)C)nc(OC)c1NC(=O)c1csc(Oc2cc(C(C)(C)C)ccc2C)n1` [Example 5, 2-(5-tert-Butyl-2-methylhenoxy)-N-(2-(2-(dimethylamino)ethylamino)-4,6-dimethoxypyrimidin-5-yl)thiazole-4-carboxamide], for which the IC50 at human GnRH receptors is 193 nM.
`COc1cc2c(cc1Oc1nc(C(=O)Nc3c(OC)nc(NCCNC(C)C)nc3OC)cs1)C(C)(C)CC2` [Example 24, N-(2-(2-(Isopropylamino)ethylamino)-4,6-dimethoxypyrimidin-5-yl)-2-(6-methoxy-3,3-dimethyl-2,3-dihydro-1H-inden-5-yloxy)thiazole-4-carboxamide]: the concentration for half-maximal inhibition (IC50) on human GnRH receptors turned out to be 4 nM.
